According to patent US10457680B2, “Process for preparing a PARP inhibitor, crystalline forms, and uses thereof” (BeiGene, Ltd., priority 2015, dated 2019):
Where two headings read alike, the source gives them in different places.

Legend:
[1] = Hygroscopicity; type: physicochemical
[2] = Long term stability studies; type: physicochemical; conditions: for Assay w/w, T12: 12 months; for Assay w/w, T0: start
[3] = Solubility study; type: physicochemical
[4] = system: BRCA1/2 mutant ovary cancer; experiment: Phase I clinical safety study, capsules; type: in vivo, human
[5] = target: PARP2 (aa2-583) (Homo sapiens, UniProt Q9UGN5); experiment: PARP2 PARylation chemiluminescent assay; type: biochemical; conditions: Crystalline Form C tested
Description: PARP1 and PARP2 enzymes were from the assay kits, while TNKS1 and TNKS2 enzymes were produced in-house. The assays were performed according to the manufacture's instruction. Briefly, H2A and H2B proteins were immobilized on the surface of plates and then incubated with a serial dilution of compounds and the target enzyme for 0.5 hr. Then, biotinylated NAD and DNA (no DNA needed for TNKS1 or TNKS2) were added to the wells to initiate reactions. The biotinylated PARsylation product was measured by chemiluminescence after adding streptavidin-HRP and HRP substrates.

[6] = system: Intracellular PARP activity; type: cell-based; conditions: HeLa cells, H2O2 200 μM; read-out: IC50 (nM) in PARylation assay
Description: Upon incubation with hydrogen peroxide (H2O2), Intracellular PARP activity was induced and endogenous PAR level was elevated. The assay was performed as follows:
Cells were plated into a 96-well plate with clear bottom and black wall at a density of 5000 cells per well (100 μL). […] In the following day, H2O2 solution in PBS (final concentration 200 μM) was added and the plate was kept at 37° C. for 5 minutes. Then the medium was gently removed by plate inversion, and the cells were fixed by ice-cold MeOH at −20° C. for 20 minutes. […] After removal of solution and repeated wash with PBS, the PAR polymer level was estimated by ArrayScan VTI (ThermoFisher). Percent inhibition was determined on the basis of the residual enzyme activity in the presence of increasing PARP inhibitor concentration. IC50 values were calculated by fitting dose-dependent data to the four-parameter logistic model using XLfit software.

[7] = system: MDA-MB-231 cells; experiment: Growth inhibition, CellTiter-Glo, 7-day exposure, MDA-MB-231; type: cell-based; conditions: BRCA wild type
Description: (§1) MDA-MB-231 cells that is not BRCA gene mutant or other homologous recombination deficient were maintained in DMEM supplemented with fetal bovine serum (10% FBS), 100 units/ml penicillin and 0.1 mg/ml streptomycin. BRCA1-deficient cell line MDA-MB-436 was maintained in RPMI-1640 supplemented with 10% FBS, 100 units/ml penicillin and 0.1 mg/ml streptomycin. Both two cell lines were kept at 95% humidity and 5% CO2 in a 37° C. incubator.
(§2) The number of tumor cells seeded per well of a 96-well plate was optimized for each cell line to ensure logarithmic growth over the 7 days treatment period. Cells were left to attach for 16 hours and then treated with specific concentrations of test compounds. Following a 7-day exposure to the compound, the growth-inhibitory activity of compounds was determined using CellTiter-Glo luminescent cell viability assay (Promega). Luminescent signal was measured using PHERAstar FS reader (BMG Labtech). Cell viability was expressed as relative to mock treatment control. EC50 values for growth inhibition were calculated by fitting dose-dependent data to the four-parameter logistic model using XLfit software.

[8] = system: MDA-MB-436 cells (BRCA1 Deficient); experiment: Growth inhibition, CellTiter-Glo, 7-day exposure, MDA-MB-436; type: cell-based, human; conditions: for EC50: 7-day exposure, BRCA1 Deficient, read-out: EC50 for growth inhibition, MDA-MB-436 (Table 20)
Description: as §1, §2

[9] = Brain penetration; conditions: in vivo
[10] = Plasma protein binding, mouse; type: in vitro ADME; conditions: read-out: Plasma protein binding (PPB) (converted)
[11] = Metabolism in rat liver microsomes; type: in vitro ADME
[12] = Excretion after oral administration in rats; type: in vivo
[13] = system: rat plasma protein; experiment: Plasma protein binding, rat; type: in vitro ADME
[14] = Metabolism in mouse liver microsomes; type: in vitro ADME
[15] = Metabolism in dog liver microsomes; type: in vitro ADME
[16] = system: CYP3A, CYP2C8; experiment: CYP isoforms responsible for metabolism; type: in vitro ADME
[17] = Metabolism in monkey liver microsomes; type: in vitro ADME
[18] = Ames assay
[19] = Pharmacokinetics in dog; type: in vivo
Description: (§3) The species used for the pharmacokinetic studies were rat and dog. Compound A had good to excellent oral bioavailability (>40%) in both species. Elimination half-lives ranged from 3.1 to 5.0 hours in rats and 1.5 to 2.5 hours in dogs after oral administration. […] Steady state volume of distribution in rats and dogs was 2.4 L/kg and 1.9 L/kg, respectively.

[20] = system: BRCA1 mutation breast cancer xenograft; experiment: BRCA1 mutation breast cancer xenograft model; type: in vivo; conditions: at much lower dose than olaparib
[21] = Pharmacokinetics in rat; type: in vivo
Description: as §3

[22] = system: human CYP3A; experiment: CYP3A induction; type: in vitro ADME
[23] = system: human CYP2B6; experiment: CYP2B6 induction; type: in vitro ADME
[24] = system: intracranial H209 xenografts; experiment: Intracranial H209 xenografts, combination with TMZ; type: in vivo, Mice; conditions: Compound A added to TMZ, compared to TMZ single agent
[25] = Plasma protein binding, human; type: in vitro ADME; conditions: read-out: Plasma protein binding (PPB) (converted)
[26] = Plasma protein binding, monkey; type: in vitro ADME; conditions: read-out: Plasma protein binding (PPB) (converted)
[27] = system: human CYP1A2; experiment: CYP1A2 induction; type: in vitro ADME
[28] = system: other CYP isozymes; experiment: Inhibition of other CYP isozymes; type: in vitro ADME; conditions: human; read-out: IC50s for other CYP isozymes
[29] = Metabolism in human liver microsomes; type: in vitro ADME
[30] = system: PARP; experiment: In vivo pharmacodynamics: PARylation in MDA-MB-436 breast cancer xenografts; design: species or system BALB/c nude mice; conditions: 4 hours after single oral dose at 0.34 mg/kg or higher
[31] = target: hERG current (Homo sapiens, UniProt Q12809); experiment: hERG current; type: cell-based
[32] = target: CYP2C9 (Homo sapiens, UniProt P11712); experiment: CYP2C9 inhibition; type: in vitro ADME
[33] = Plasma protein binding, dog; type: in vitro ADME; conditions: read-out: Plasma protein binding (PPB) (converted)
[34] = Tissue distribution after oral administration in rats; type: in vivo; conditions: 24 hours post-dosing
[35] = Nonclinical toxicity, single and repeat dose studies up to 28 days; type: in vivo; conditions: rats and dogs
Text: The nonclinical toxicity profile of Compound A was characterized in both rats and dogs in single and repeat dose studies up to 28 days. The adverse effects included decrease in body weights or body weight gain and food consumption; decrease in WBC, NEUT, LYMP, RBC, HGB, HCT and APTT; and increase in PLT. The bone marrow was considered to be the major target organ and the severity of histopathological changes ranged from minimal to marked. […] […]. In summary, the available toxicological data are adequate to support the clinical development of Compound A on late stage and advanced cancer patients in phase I study. The toxicity could be monitored and manageable clinically.

[36] = read-out: EC50 for growth inhibition, MDA-MB-231 (Table 20)

PARP2 (aa2-583), sequence (Q9UGN5 2-583): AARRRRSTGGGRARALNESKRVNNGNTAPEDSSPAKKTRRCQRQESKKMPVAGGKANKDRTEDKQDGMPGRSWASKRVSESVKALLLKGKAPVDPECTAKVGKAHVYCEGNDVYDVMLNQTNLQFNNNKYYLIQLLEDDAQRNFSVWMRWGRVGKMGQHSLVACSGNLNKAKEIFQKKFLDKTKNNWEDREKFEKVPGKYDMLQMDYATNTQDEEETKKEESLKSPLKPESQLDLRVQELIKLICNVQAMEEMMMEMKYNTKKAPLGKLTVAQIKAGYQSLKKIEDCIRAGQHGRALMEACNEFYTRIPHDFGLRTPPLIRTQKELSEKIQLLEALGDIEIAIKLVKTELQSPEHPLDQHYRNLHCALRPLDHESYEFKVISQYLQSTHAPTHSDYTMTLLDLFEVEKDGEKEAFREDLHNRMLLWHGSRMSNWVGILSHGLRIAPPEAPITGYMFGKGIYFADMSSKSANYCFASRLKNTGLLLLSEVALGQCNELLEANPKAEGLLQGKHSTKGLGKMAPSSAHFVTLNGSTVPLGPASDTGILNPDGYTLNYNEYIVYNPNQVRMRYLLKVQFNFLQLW
CYP2C9, sequence (P11712 whole entry): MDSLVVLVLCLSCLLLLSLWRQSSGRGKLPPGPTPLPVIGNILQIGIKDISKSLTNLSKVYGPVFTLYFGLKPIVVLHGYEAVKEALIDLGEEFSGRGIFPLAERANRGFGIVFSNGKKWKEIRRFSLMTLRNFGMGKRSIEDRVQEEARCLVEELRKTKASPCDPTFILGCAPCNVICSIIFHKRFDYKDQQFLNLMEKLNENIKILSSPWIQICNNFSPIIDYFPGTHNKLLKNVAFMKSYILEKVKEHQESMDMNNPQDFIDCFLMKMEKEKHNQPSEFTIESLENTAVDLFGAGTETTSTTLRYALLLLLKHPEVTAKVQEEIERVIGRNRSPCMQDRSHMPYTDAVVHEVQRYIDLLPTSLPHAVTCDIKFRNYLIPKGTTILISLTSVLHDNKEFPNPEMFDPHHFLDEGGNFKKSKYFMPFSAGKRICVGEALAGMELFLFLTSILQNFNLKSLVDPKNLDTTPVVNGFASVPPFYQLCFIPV
hERG current, sequence (Q12809 whole entry): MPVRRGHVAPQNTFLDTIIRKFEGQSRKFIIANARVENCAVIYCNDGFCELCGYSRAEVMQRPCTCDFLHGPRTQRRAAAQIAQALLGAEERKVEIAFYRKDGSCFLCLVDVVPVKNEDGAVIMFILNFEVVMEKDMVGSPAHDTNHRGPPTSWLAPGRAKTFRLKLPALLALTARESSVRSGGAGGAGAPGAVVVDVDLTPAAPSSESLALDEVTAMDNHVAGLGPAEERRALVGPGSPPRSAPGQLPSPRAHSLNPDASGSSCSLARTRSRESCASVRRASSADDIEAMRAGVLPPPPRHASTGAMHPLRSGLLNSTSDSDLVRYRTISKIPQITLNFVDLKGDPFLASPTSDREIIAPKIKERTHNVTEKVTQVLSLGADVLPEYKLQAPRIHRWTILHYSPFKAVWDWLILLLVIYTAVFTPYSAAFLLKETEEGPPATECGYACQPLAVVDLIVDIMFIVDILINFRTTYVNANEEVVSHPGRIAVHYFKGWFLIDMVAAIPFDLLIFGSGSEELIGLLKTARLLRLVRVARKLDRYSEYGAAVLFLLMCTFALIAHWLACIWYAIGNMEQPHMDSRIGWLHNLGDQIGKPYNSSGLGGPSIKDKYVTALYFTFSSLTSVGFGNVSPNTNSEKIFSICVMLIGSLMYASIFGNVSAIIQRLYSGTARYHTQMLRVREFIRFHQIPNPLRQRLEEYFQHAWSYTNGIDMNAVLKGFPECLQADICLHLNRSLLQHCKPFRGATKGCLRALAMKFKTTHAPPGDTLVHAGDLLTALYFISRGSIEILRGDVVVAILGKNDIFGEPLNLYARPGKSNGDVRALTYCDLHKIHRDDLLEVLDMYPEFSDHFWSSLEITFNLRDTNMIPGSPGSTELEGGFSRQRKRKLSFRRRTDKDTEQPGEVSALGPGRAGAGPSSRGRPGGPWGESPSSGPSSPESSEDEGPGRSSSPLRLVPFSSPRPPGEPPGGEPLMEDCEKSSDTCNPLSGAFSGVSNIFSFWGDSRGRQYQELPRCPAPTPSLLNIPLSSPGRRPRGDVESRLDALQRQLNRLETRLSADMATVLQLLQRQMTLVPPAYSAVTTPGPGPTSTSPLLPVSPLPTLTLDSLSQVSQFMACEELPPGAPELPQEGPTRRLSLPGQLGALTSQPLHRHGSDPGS

## C[C@]12CCCN1CC1=NNC(=O)c3cc(F)cc4[nH]c2c1c34 [Compound A sesqui-hydrate, (R)-2-fluoro-10a-methyl-7,8,9,10,10a,11-hexahydro-5,6,7a,11-tetraazacyclohepta[def]cyclopenta[a]fluoren-4(5H)-one sesqui-hydrate]
[1]
  hygroscopicity: slightly hygroscopic
[2]; 25° C./60% RH and 40° C./75% RH, up to 12 months
  crystal form and optical purity on storage: no crystal form and optical purity changes were observed
[2]; 25° C./60% RH
  Assay w/w, T12: 99.0%
  Assay w/w, T0: 99.1%
[2]; 40° C./75% RH
  Assay w/w, T12: 98.9%
  Assay w/w, T0: 99.0%
[3]; SGF, pH=1.2
  solubility in simulated gastric fluid (SGF): 4500 µg/mL
[3]; simulated gastric fluid (SGF), pH 1.2, simulated gastric fluid, SGF, pH=1.2, read-out: solubility in simulated gastric fluid (SGF)
  solubility: ~4500 µg/mL
[3]; water
  solubility in water: 40 µg/mL
[3]; water, read-out: solubility in water
  solubility: ~40 µg/mL
[4]; 25 subjects, 2.5-120 mg bid, capsules
  clinical safety and tolerability: safe and well tolerated
[5]
  IC50: 0.00092 µM

## C[C@]1(c2nc3c(C(N)=O)cccc3[nH]2)CCCN1 [Veliparib, veliparib, reference compound]
[6]
  IC50: 2.66 nM
[7]; [36]
  EC50: > 10 µM
[8]
  EC50: 0.82 ± 0.3 µM

## C[C@]12CCCN1CC1=NNC(=O)c3cc(F)cc4[nH]c2c1c34 [Compound A, (R)-2-fluoro-10a-methyl-7,8,9,10,10a,11-hexahydro-5,6,7a,11-tetraazacyclohepta[def]cyclopenta[a]fluoren-4(5H)-one]
[9]
  brain penetration: significant brain penetration
[10]
  fraction unbound: 0.15
[11]
  rate of metabolism: slowly
[12]
  excreted in urine and bile: Less than 1%
[13]
  Plasma protein binding (PPB): 84.9%
[14]
  rate of metabolism: slowly
[15]
  rate of metabolism: slowly
[16]
  CYP isoform responsible for metabolism: CYP3A was the major CYP isoform
[17]
  rate of metabolism: quickly
[18]
  mutagenicity: No mutagenicity
[19]
  accumulation following multiple oral dosing: no accumulation
[19]; in vivo, dogs
  clearance: 18.3 to 18.5 mL/min/kg
[19]; in vivo, dogs, oral administration, read-out: Elimination half-lives
  half-life: 1.5 to 2.5 h
[19]; in vivo, dogs, read-out: Steady state volume of distribution
  Vd: 1.9 L/kg
[19]; in vivo, po
  bioavailability: > 40%
[20]
  tumor regression: significantly induces tumor regression
[21]
  accumulation following multiple oral dosing: no accumulation
[21]; in vivo, po
  bioavailability: > 40%
[21]; in vivo, rats
  clearance: 8.67 to 15.2 mL/min/kg
[21]; in vivo, rats, oral administration, read-out: Elimination half-lives
  half-life: 3.1 to 5 h
[21]; in vivo, rats, read-out: Steady state volume of distribution
  Vd: 2.4 L/kg
[22]
  induction of human CYP3A: not an inducer
[7]; Homo sapiens, MDA-MB-231, 168 h, read-out: EC50 for growth inhibition, MDA-MB-231
  EC50: ~9 µM
[7]; Homo sapiens, MDA-MB-231, 168 h, read-out: EC50 for growth inhibition, MDA-MB-231 (Table 20)
  EC50: ~9 µM
[23]
  induction of human CYP2B6: not an inducer
[24]
  animal survival: significantly prolonged animal survival
[25]
  fraction unbound: 0.043
[26]
  fraction unbound: 0.111
[4]; BRCA1/2 mutant ovary cancer patients
  clinical response: partial or complete responses
[27]
  induction of human CYP1A2: not an inducer
[28]
  IC50: > 10 µM
[8]; BRCA1-deficient
  sensitivity of MDA-MB-436 cells: profoundly sensitive
[8]; Homo sapiens, MDA-MB-436, 168 h
  EC50: 0.041 ± 0.015 µM
[29]
  rate of metabolism: slowly
[30]
  inhibition of PARylation: Potent inhibition of PARylation
[31]
  IC50: 26 µM
[32]
  IC50: 6.48 µM
[33]
  fraction unbound: 0.21
[34]
  organ drug concentration as % of the peak concentration: less than 10%
[35]; 28-day recovery phase
  character of toxicity: dose dependent, correlated with systemic exposure and reversible
[35]; up to 28 days
  major target organ of toxicity: bone marrow

## O=C(c1cc(Cc2n[nH]c(=O)c3ccccc23)ccc1F)N1CCN(C(=O)C2CC2)CC1 [Olaparib, olaparib, reference compound]
[7]; [36]
  EC50: ~5 µM
[8]
  EC50: 0.021 ± 0.007 µM
